Results reported in ChEMBL document CHEMBL1201862, “PubChem BioAssay data set” (2004).
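Compound exposure: 48 hours, 5 concentrations, 96-well plates. The concentration for 50% growth inhibition is given as GI50.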 Activity calls are given as the source filed them. Cut-off read from the data, not from the text of the source: active = GI50 up to about 1.1 µM and inactive = higher.

What was measured:
Experiment in all cases: growth of human tumour cells (NCI), 48 h
786-0 = system: 786-0
A498 = system: A498
A549 = system: A549
ACHN = system: ACHN
CCRF-CEM = system: CCRF-CEM
COLO 205 = system: COLO 205
DLD-1 = system: DLD-1
DMS-114 = system: DMS-114
DMS-273 = system: DMS-273
EKVX = system: EKVX
HCC 2998 = system: HCC 2998
HCT-116 = system: HCT-116
HL-60 = system: HL-60
HOP-18 = system: HOP-18
HOP-62 = system: HOP-62
HOP-92 = system: HOP-92
HT-29 = system: HT-29
IGROV-1 = system: IGROV-1
K562 = system: K562
KM-20L2 = system: KM-20L2
KM12 = system: KM12
LOX IMVI = system: LOX IMVI
LXFL 529 = system: LXFL 529
M14 = system: M14
MOLT-4 = system: MOLT-4
Malme-3M = system: Malme-3M
NCI-H226 = system: NCI-H226
NCI-H23 = system: NCI-H23
NCI-H460 = system: NCI-H460
OVCAR-3 = system: OVCAR-3
OVCAR-4 = system: OVCAR-4
OVCAR-8 = system: OVCAR-8
RPMI-8226 = system: RPMI-8226
RXF 393 = system: RXF 393
RXF 631 = system: RXF 631
SF-295 = system: SF-295
SF-539 = system: SF-539
SK-MEL-28 = system: SK-MEL-28
SK-MEL-2 = system: SK-MEL-2
SK-MEL-5 = system: SK-MEL-5
SK-OV-3 = system: SK-OV-3
SNB-19 = system: SNB-19
SNB-75 = system: SNB-75
SNB-78 = system: SNB-78
SW-620 = system: SW-620
TK-10 = system: TK-10
U-251 = system: U-251
UACC-257 = system: UACC-257
UACC-62 = system: UACC-62
UO-31 = system: UO-31
CAKI-1 = system: CAKI-1
M19-MEL = system: M19-MEL
NCI-H522 = system: NCI-H522
OVCAR-5 = system: OVCAR-5
SF-268 = system: SF-268
SN12C = system: SN12C
XF498 = system: XF498
SR = system: SR

Measured: GI50

CCOC(=O)[C@@]12C(C)=CC(=O)O[C@]1(C)C1C(=O)NC(=O)C12 (some centres undefined)
inactive: 786-0 > 100 µM | A498 > 100 µM | A549 > 100 µM | ACHN > 100 µM | CCRF-CEM > 100 µM | COLO 205 > 100 µM | DLD-1 > 100 µM | DMS-114 > 100 µM | DMS-273 > 100 µM | EKVX > 100 µM | HCC 2998 > 100 µM | HCT-116 > 100 µM | HL-60 > 100 µM | HOP-18 31.4 µM | HOP-62 > 100 µM | HOP-92 22.1 µM | HT-29 > 100 µM | IGROV-1 > 100 µM | K562 > 100 µM | KM-20L2 > 100 µM | KM12 > 100 µM | LOX IMVI > 100 µM | LXFL 529 > 100 µM | M14 > 100 µM | MOLT-4 > 100 µM | Malme-3M > 100 µM | NCI-H226 7.16 µM | NCI-H23 > 100 µM | NCI-H460 > 100 µM | OVCAR-3 34.4 µM | OVCAR-4 > 100 µM | OVCAR-8 > 100 µM | RPMI-8226 > 100 µM | RXF 393 > 100 µM | RXF 631 > 100 µM | SF-295 > 100 µM | SF-539 > 100 µM | SK-MEL-28 > 100 µM | SK-MEL-2 > 100 µM | SK-MEL-5 > 100 µM | SK-OV-3 > 100 µM | SNB-19 > 100 µM | SNB-75 85.1 µM | SNB-78 > 100 µM | SW-620 > 100 µM | TK-10 > 100 µM | U-251 > 100 µM | UACC-257 > 100 µM | UACC-62 17.4 µM | UO-31 > 100 µM

COc1cc(-c2cc(-c3cc([N+](=O)[O-])c(/C=N/NC(=O)c4ccncc4)o3)ccc2OC)ccc1C
inactive: 786-0 > 100 µM | A498 > 100 µM | A549 > 100 µM | ACHN > 100 µM | CAKI-1 > 100 µM | CCRF-CEM > 10 µM | COLO 205 > 100 µM | DLD-1 > 100 µM | EKVX > 100 µM | HCC 2998 > 100 µM | HL-60 > 10 µM | HOP-62 > 100 µM | HOP-92 > 100 µM | HT-29 > 100 µM | IGROV-1 > 100 µM | K562 > 100 µM | KM-20L2 > 100 µM | LOX IMVI > 100 µM | LXFL 529 > 100 µM | M14 > 100 µM | M19-MEL > 100 µM | Malme-3M > 100 µM | NCI-H226 > 100 µM | NCI-H23 > 100 µM | NCI-H522 > 100 µM | OVCAR-3 > 100 µM | OVCAR-4 > 100 µM | OVCAR-5 > 100 µM | RPMI-8226 > 100 µM | RXF 393 > 100 µM | RXF 631 > 100 µM | SF-268 > 100 µM | SF-295 > 100 µM | SF-539 > 100 µM | SK-MEL-28 > 100 µM | SK-MEL-2 > 100 µM | SK-OV-3 > 100 µM | SN12C > 100 µM | SNB-19 > 100 µM | SNB-75 > 100 µM | SW-620 > 100 µM | TK-10 > 100 µM | UACC-257 > 100 µM | UACC-62 > 100 µM | XF498 > 100 µM

O=[N+]([O-])C1Cc2ccccc2OC1c1ccccc1 (centres undefined)
inactive: 786-0 35.3 µM | A498 > 100 µM | A549 > 100 µM | ACHN 66.7 µM | CAKI-1 24.1 µM | CCRF-CEM 30.8 µM | COLO 205 69 µM | DLD-1 35.3 µM | DMS-114 > 10 µM | DMS-273 60.4 µM | EKVX > 100 µM | HCC 2998 > 100 µM | HCT-116 66.4 µM | HL-60 39.4 µM | HOP-18 > 100 µM | HOP-62 33.5 µM | HOP-92 83.2 µM | HT-29 83.8 µM | IGROV-1 64.4 µM | K562 26.8 µM | KM-20L2 > 100 µM | KM12 > 100 µM | LOX IMVI 15.3 µM | LXFL 529 > 100 µM | M14 > 100 µM | M19-MEL > 100 µM | MOLT-4 23.4 µM | Malme-3M > 100 µM | NCI-H226 > 100 µM | NCI-H23 92.9 µM | NCI-H522 26.6 µM | OVCAR-3 > 100 µM | OVCAR-4 > 100 µM | OVCAR-5 > 100 µM | OVCAR-8 89.7 µM | RXF 393 21.8 µM | RXF 631 62.2 µM | SF-268 36.1 µM | SF-295 40.5 µM | SF-539 31.2 µM | SK-MEL-28 86.1 µM | SK-MEL-5 > 100 µM | SK-OV-3 96.6 µM | SN12C 21.7 µM | SNB-19 41.9 µM | SNB-75 19.9 µM | SNB-78 21.4 µM | SR 15.3 µM | SW-620 > 100 µM | TK-10 77.1 µM | U-251 40.6 µM | UACC-257 > 100 µM | UACC-62 55.3 µM | UO-31 > 100 µM
